Test results taken from patent publication US20260365670A1, “EGFR INHIBITORS AND USES THEREOF” (DIZAL (JIANGSU) PHARMACEUTICAL CO., LTD., priority 2022, published 2026).
pIC50: −log10 of the molar value. Read-outs that look alike come from different tables or passages of the source.

Assays:
EGFR L858R/T790M = biological target: T1, EGFR L858R/T790M (Homo sapiens, UniProt P00533, L858R/T790M); test: Inhibition of EGFR L858R/T790M biochemical enzymatic activity (HTRF); conditions: 1 mM ATP; for IC50: EGFR L858R-T790M, 1 h, room temperature, read-out: IC50 (nM) @L858R-T790M; for pIC50: EGFR L858R/T790M, 1 h at room temperature, read-out: IC50 @L858R-T790M
T1 construct: purchased Carna Bio
Experimental: (§1) Biological Example 1: Inhibition of EGFR WT and Mutant Biochemical Enzymatic Activity
(§2) The inhibition potency of compounds against these enzymes was assessed using Homogenous Time Resolved Fluorescence approach (HTRF, CisBio. Cat No. 62TKOPEJ).
(§3) Inhibitory effects of the compounds were determined by measuring the enzymatic activity of EGFR enzyme phosphorylates 1 μM TK Substrate-biotin in the presence of 1 mM adenosine-5′-triphosphate (ATP) and varying concentrations of the test compound. The enzyme reaction buffer contains 5 mM MgCl2, 1 mM MnC12, 0.01% CHAPS, 1 mM dithiothreitol (DTT), 0.5% dimethylsulfoxide (DMSO), and 1× supplemented enzymatic buffer. The WT and mutant EGFR enzymes (SignalChem) were added to plates containing inhibitors, followed by activation of the kinase reaction by addition of ATP and peptide substrates. After incubation for 1 h at room temperature, the reaction was stopped by the addition of the detection reagent mix containing EDTA. The fluorescence was measured at 615 nm and 665 nm, respectively with excitation wavelength at 320 nm. The calculated signal ratio of 665 nm/615 nm is proportional to the kinase activity. The concentration of compound producing 50% inhibition of the respective kinase (IC50) was calculated using four-parameter logistic fit with XL-FIT.

[1] = biological target: T2, EGFR[T790M/C797S/d746-750] (Homo sapiens, UniProt P00533, C797S/DEL746-750/T790M); test: Inhibition of EGFR[T790M/C797S/d746-750] biochemical enzymatic activity (HTRF); conditions: for IC50: EGFR T790M-C797S-Del19, 1 mM ATP, 1 h, room temperature, read-out: IC50 (nM) @T790M - C797S - Del19; for pIC50: EGFR[T790M/C797S/d746-750], 1 mM ATP, 1 h at room temperature, read-out: IC50 @T790M - C797S - Del19
T2 construct: purchased Carna Bio
T2 sequence (P00533 with tags, fused parts or gaps DEL746-750/T790M/C797S limits assumed): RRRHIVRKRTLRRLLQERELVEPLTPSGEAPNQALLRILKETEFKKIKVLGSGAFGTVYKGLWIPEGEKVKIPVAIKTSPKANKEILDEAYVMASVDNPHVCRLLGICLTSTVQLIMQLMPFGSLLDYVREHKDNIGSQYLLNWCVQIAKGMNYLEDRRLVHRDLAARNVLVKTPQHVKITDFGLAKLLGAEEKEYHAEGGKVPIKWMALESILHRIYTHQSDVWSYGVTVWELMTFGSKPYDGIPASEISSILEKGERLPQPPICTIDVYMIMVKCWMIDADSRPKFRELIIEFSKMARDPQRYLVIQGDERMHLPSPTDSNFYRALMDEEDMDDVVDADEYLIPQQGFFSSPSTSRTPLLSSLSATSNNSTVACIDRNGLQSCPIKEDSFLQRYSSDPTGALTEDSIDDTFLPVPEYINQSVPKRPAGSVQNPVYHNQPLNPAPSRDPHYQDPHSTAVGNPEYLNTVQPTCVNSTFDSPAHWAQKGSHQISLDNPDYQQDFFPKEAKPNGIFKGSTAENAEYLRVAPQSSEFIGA
Experimental: as §1, §2, §3

EGFR wild type = biological target: T3, EGFR wild type (Homo sapiens, UniProt P00533); test: Inhibition of EGFR wild type biochemical enzymatic activity (HTRF); conditions: 1 mM ATP; for IC50: EGFR WT, 1 h, room temperature, read-out: IC50 (nM) @WT; for pIC50: EGFR wild type, 1 h at room temperature, read-out: IC50 @WT
T3 construct: purchased Carna Bio
T3 sequence (P00533 25-1210): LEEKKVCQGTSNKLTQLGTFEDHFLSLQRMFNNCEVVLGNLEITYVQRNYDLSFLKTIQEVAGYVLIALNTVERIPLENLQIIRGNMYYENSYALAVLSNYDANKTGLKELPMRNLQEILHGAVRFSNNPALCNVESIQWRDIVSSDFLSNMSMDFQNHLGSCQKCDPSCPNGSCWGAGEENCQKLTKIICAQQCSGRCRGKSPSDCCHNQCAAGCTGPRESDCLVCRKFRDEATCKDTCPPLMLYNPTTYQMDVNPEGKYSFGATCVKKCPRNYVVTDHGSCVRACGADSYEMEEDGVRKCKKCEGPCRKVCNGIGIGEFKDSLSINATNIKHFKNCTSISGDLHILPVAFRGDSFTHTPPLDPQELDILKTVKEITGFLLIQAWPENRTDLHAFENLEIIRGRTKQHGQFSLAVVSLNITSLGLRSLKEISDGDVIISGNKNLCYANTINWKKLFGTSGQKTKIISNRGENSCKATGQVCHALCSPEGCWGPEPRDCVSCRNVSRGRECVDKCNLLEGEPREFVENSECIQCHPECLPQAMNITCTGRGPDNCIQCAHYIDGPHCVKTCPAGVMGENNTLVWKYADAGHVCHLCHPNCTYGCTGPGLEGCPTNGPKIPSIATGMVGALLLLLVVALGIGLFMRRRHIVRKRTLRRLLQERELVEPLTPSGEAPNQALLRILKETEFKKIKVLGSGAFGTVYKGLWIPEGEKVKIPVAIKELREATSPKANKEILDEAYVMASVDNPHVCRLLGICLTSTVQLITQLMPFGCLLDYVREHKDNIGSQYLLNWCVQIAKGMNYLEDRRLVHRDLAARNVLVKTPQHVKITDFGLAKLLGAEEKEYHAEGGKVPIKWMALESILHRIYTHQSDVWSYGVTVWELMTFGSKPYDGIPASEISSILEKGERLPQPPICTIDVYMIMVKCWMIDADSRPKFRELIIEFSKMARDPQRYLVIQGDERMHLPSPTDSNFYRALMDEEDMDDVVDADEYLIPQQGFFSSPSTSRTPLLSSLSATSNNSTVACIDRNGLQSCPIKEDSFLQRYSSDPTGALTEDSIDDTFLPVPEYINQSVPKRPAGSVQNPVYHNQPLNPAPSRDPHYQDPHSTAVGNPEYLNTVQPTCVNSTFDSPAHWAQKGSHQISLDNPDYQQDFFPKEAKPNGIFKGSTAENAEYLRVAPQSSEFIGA
Experimental: as §1, §2, §3

EGFR L858R = biological target: T4, EGFR L858R (Homo sapiens, UniProt P00533, L858R); test: Inhibition of EGFR L858R biochemical enzymatic activity (HTRF); conditions: 1 mM ATP; for IC50: 1 h, room temperature, read-out: IC50 (nM) @L858R; for pIC50: 1 h at room temperature, read-out: IC50 @L858R
T4 construct: purchased Carna Bio
T4 sequence (P00533 25-1210 L858R): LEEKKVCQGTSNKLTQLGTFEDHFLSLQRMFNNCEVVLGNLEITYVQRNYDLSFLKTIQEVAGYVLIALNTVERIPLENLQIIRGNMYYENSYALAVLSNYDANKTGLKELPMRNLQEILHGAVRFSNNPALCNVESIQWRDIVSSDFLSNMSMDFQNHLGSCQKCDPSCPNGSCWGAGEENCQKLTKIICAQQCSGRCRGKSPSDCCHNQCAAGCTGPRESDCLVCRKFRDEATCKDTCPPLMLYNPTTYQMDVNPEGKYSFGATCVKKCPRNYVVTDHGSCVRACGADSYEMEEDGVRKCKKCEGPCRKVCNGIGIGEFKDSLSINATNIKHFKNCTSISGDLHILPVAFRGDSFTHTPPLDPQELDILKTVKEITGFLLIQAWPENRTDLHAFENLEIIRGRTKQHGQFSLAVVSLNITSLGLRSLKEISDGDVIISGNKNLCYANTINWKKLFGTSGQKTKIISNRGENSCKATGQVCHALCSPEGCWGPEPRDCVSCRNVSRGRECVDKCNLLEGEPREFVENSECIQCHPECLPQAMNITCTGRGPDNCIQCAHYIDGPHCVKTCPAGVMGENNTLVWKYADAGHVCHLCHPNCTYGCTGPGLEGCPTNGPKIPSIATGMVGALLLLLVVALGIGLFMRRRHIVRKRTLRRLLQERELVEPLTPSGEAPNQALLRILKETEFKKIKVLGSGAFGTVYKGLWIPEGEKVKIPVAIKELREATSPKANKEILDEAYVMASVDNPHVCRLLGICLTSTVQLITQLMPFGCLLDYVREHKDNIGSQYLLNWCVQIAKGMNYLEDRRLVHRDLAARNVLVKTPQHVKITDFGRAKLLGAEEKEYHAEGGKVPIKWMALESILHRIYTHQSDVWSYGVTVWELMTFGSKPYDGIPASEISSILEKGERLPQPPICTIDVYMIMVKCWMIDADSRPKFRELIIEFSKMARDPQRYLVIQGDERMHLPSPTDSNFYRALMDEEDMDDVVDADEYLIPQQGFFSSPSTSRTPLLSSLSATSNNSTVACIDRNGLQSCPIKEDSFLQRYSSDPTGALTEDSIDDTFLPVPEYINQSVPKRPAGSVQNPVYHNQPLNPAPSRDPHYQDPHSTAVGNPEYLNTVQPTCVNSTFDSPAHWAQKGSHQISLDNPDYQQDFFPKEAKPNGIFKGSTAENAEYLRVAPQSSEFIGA
Experimental: as §1, §2, §3

EGFR Exon19Del = biological target: T5, EGFR Exon19Del (Homo sapiens, UniProt P00533, DEL746-750); test: Inhibition of EGFR Exon19Del biochemical enzymatic activity (HTRF); conditions: read-out: IC50 @Del19
T5 construct: purchased Carna Bio
T5 sequence (P00533 with tags, fused parts or gaps DEL746-750 limits assumed): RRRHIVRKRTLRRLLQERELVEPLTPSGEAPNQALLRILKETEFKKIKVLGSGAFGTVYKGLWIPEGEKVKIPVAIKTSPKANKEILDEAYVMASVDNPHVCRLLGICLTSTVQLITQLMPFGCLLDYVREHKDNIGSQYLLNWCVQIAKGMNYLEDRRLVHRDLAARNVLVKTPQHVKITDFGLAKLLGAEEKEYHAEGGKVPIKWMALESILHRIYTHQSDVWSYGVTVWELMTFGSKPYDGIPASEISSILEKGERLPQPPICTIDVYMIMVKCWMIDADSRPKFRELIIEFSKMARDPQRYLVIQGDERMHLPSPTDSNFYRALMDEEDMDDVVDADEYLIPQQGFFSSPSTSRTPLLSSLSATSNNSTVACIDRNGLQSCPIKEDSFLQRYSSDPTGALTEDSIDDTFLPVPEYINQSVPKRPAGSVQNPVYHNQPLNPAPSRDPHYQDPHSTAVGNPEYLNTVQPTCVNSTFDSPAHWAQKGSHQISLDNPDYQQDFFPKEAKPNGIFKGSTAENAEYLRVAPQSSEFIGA
Experimental: as §1, §2, §3

PC-9 = test: Cell proliferation assay, PC-9 cells (CellTiter-Glo, 72 hours); assay type: cell-based; conditions: PC9 cells
Experimental: (§4) Biological Example 2: Cell Proliferation Assays
(§5) Ba/F3 cells expressing EGFR mutations were seeded in 384-well plates at 5000 cells/well in RPMI1640 medium containing […]. PC-9 at 500 cells/well was seeded into 384-well plates in RPMI1640 medium with 10% FBS. After overnight incubation, the assay plates were dosed with compounds at a series of concentrations. Alongside dosing the assay plates, the day 0 plate was processed using CellTiter-Glo® Luminescent Cell Viability Assay (Promega) to measure the number of viable cells (G0). The assay plates were further incubated for 72 hours and the number of viable cells (G3) was measured. The percentage of proliferation was calculated as: […]=100×(G3 value of sample well−G0 value)/(G3 value of DMSO control−G0 value). The concentration of compound producing 50% proliferation inhibition (GI50) was further calculated in best-fit curves using XLFit software. N/A=not available.

EGFR[T790M/C797S/L858R] = biological target: T6, EGFR[T790M/C797S/L858R] (Homo sapiens, UniProt P00533, C797S/L858R/T790M); test: Inhibition of EGFR[T790M/C797S/L858R] biochemical enzymatic activity (HTRF); conditions: 1 mM ATP; for IC50: EGFR T790M-C797S-L858R, 1 h, room temperature, read-out: IC50 (nM) @T790M- C797S - L858R; for pIC50: EGFR[T790M/C797S/L858R], 1 h at room temperature, read-out: IC50 @T790M- C797S - L858R
T6 construct: purchased Carna Bio
T6 sequence (P00533 25-1210 T790M/C797S/L858R): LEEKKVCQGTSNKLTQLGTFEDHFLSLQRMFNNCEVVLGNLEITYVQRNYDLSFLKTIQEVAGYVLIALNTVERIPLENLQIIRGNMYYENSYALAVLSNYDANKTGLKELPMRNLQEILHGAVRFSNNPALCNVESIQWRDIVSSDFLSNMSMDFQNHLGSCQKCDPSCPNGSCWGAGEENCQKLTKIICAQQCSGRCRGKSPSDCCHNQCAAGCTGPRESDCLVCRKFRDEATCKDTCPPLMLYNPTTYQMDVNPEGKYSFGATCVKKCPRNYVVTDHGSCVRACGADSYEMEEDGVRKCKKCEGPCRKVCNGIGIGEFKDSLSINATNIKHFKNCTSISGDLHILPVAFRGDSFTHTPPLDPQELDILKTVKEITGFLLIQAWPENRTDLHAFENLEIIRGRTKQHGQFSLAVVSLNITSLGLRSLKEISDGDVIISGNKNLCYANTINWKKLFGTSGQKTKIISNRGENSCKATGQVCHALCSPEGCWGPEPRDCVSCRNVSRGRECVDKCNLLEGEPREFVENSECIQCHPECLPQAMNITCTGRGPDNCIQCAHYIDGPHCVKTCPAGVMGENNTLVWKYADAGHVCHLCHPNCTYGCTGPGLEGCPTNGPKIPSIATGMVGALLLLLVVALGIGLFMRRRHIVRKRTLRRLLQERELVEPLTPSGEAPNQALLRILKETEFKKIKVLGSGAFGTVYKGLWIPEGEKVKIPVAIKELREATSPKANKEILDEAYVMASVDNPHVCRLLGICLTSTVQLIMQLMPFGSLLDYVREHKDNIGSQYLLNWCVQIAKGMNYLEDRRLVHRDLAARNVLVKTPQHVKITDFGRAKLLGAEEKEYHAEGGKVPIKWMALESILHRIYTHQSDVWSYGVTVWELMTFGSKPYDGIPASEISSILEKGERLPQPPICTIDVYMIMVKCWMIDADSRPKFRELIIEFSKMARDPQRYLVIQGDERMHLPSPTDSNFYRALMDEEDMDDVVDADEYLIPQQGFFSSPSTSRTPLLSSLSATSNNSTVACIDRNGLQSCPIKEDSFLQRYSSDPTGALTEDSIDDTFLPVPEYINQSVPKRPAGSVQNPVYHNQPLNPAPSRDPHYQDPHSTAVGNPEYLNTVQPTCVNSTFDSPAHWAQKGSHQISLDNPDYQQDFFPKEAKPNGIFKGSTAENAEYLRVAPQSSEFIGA
Experimental: as §1, §2, §3

[2] = tested on: Ba/F3 cells expressing EGFR mutations; test: Cell proliferation assay, Ba/F3 cells expressing EGFR mutations (CellTiter-Glo, 72 hours); assay type: cell-based
Experimental: as §4, §5

EGFR (C797S L858R) = biological target: T7, EGFR (C797S L858R) (Homo sapiens, UniProt P00533, C797S/L858R); test: Inhibition of EGFR (C797S L858R) biochemical enzymatic activity (HTRF); conditions: 1 mM ATP; for IC50: EGFR L858-C797S, 1 h, room temperature, read-out: IC50 (nM) @L858-C797S; for pIC50: EGFR (C797S L858R), 1 h at room temperature, read-out: IC50 @L858-C797S
T7 construct: purchased signalchem
Experimental: as §1, §2, §3

EGFR (d746-750 C797S) = biological target: T8, EGFR (d746-750 C797S) (Homo sapiens, UniProt P00533, C797S/DEL746-750); test: Inhibition of EGFR (d746-750 C797S) biochemical enzymatic activity (HTRF); conditions: 1 mM ATP; for IC50: EGFR Del19-C797S, 1 h, room temperature, read-out: IC50 (nM) @Del19-C797S; for pIC50: EGFR (d746-750 C797S), 1 h at room temperature, read-out: IC50 @Del19-C797S
T8 construct: purchased signalchem
Experimental: as §1, §2, §3

EGFR Exon19Del/T790M = biological target: T9, EGFR Exon19Del/T790M (Homo sapiens, UniProt P00533, DEL746-750/T790M); test: Inhibition of EGFR Exon19Del/T790M biochemical enzymatic activity (HTRF); conditions: 1 mM ATP; for IC50: EGFR Del19-T790M, 1 h, room temperature, read-out: IC50 (nM) @Del19-T790M; for pIC50: EGFR Exon19Del/T790M, 1 h at room temperature, read-out: IC50 @Del19-T790M
T9 construct: purchased Carna Bio
Experimental: as §1, §2, §3

[3] = EGFR Del19, 1 mM ATP, 1 h, room temperature
[4] = EGFR Exon19Del, 1 mM ATP, 1 h at room temperature
[5] = BaF3 cells, EGFR DEL19 - T790-C797S, read-out: GI50 DEL19 - T790-C797S/BaF3
[6] = BaF3 cells, EGFR L858R - T790-C797S, read-out: GI50 L858R - T790-C797S/BaF3
[7] = BaF3 cells, EGFR L858R - T790M, read-out: GI50 L858R - T790M/BaF3
[8] = EGFR DEL19 - T790M, read-out: GI50 DEL19 - T790M
[9] = BaF3 cells, EGFR DEL19 - C797S, read-out: GI50 DEL19 - C797S/BaF3
[10] = BaF3 cells, EGFR L858R, read-out: GI50 L858R/BaF3

Compound	IC50 (EGFR L858R/T790M)	IC50 [1]	IC50 (EGFR wild type)	IC50 (EGFR L858R)	pIC50 (EGFR Exon19Del; [3])	IC50 (EGFR[T790M/C797S/L858R])	IC50 (EGFR (C797S L858R))	IC50 (EGFR (d746-750 C797S))	IC50 (EGFR Exon19Del/T790M)	pIC50 (EGFR L858R/T790M)	pIC50 [1]	pIC50 (EGFR wild type)	pIC50 (EGFR Exon19Del; [4])	pIC50 (EGFR[T790M/C797S/L858R])	GI50 [2, 6]	GI50 [2, 7]	GI50 [2, 8]	pIC50 (EGFR (C797S L858R))	pIC50 (EGFR (d746-750 C797S))	pIC50 (EGFR Exon19Del/T790M)	other results
CN1CCOC2(C1)CN(c1ccc3nc4n(c3c1)C13CCC(CN(CCOc5c(cnn5C)-c5cc(cn(C)c5=O)C(=O)N4)C1)C3)C2 (single isomer, unassigned) [Example A86A]	> 5000 nM	> 5000 nM	> 5000 nM	2120 nM	6.16	> 5000 nM	2820 nM	599 nM	> 5000 nM												GI50 (PC-9; CellTiter-Glo, read-out: PC9 GI50): 989 nM; GI50 ([2]; BaF3 cells, EGFR DEL19-C797S, CellTiter-Glo, read-out: DEL19-C797S/BaF3 GI50): 50 nM; GI50 ([2]; BaF3 cells, EGFR DEL19-T790-C797S, CellTiter-Glo, read-out: DEL19-T790-C797S/BaF3 GI50): 120 nM; GI50 ([2]; BaF3 cells, EGFR L858R, CellTiter-Glo, read-out: L858R/BaF3 GI50): 181 nM; GI50 ([2]; BaF3 cells, EGFR L858R-C797S, CellTiter-Glo, read-out: L858R-C797S/BaF3 GI50): 244 nM; GI50 ([2]; BaF3 cells, EGFR L858R-T790-C797S, CellTiter-Glo, read-out: L858R-T790-C797S/BaF3 GI50): 264 nM; GI50 ([2]; BaF3 cells, EGFR L858R-T790M, CellTiter-Glo, read-out: L858R-T790M/BaF3 GI50): 367 nM; GI50 ([2]; EGFR DEL19-T790M, CellTiter-Glo, read-out: DEL19-T790M GI50): 123 nM
CN(C)CCC1CN(c2ccc3nc4n(c3c2)C23CCC(CN(CCOc5c(cnn5C)-c5cc(cn(C)c5=O)C(=O)N4)C2)C3)C1 (single isomer, unassigned) [Example A95A]	> 5000 nM	> 5000 nM	> 5000 nM	4640 nM	6.06	> 5000 nM	> 5000 nM	899 nM	> 5000 nM												
Cc1cc2cc(n1)-c1cnn(C)c1OCCN1CC3CCC(C3)(C1)n1c(nc3ccc(N4CCC(N5CCOCC5)C4)cc31)NC2=O (single isomer, unassigned) [Example B44A]										< 5.30	5.33		< 5.30	< 5.30	52 nM	326 nM	368 nM	< 5.30	< 5.30	< 5.30	pIC50 (EGFR L858R): < 5.30; GI50 (PC-9; read-out: GI50 PC9): 1400 nM; GI50 [2, 9]: 312 nM; GI50 [2, 5]: 321 nM; GI50 ([2]; BaF3 cells, EGFR L858R - C797S, read-out: GI50 L858R - C797S/BaF3): 624 nM; GI50 [2, 10]: 3000 nM

Now from value to molecule, other results behind:

IC50 (EGFR L858R/T790M)	IC50 [1]	IC50 (EGFR wild type)	IC50 (EGFR L858R)	pIC50 (EGFR Exon19Del; [3])	IC50 (EGFR[T790M/C797S/L858R])	IC50 (EGFR (C797S L858R))	IC50 (EGFR (d746-750 C797S))	IC50 (EGFR Exon19Del/T790M)	pIC50 (EGFR L858R/T790M)	pIC50 [1]	pIC50 (EGFR wild type)	pIC50 (EGFR Exon19Del; [4])	pIC50 (EGFR[T790M/C797S/L858R])	GI50 [2, 6]	GI50 [2, 7]	GI50 [2, 8]	pIC50 (EGFR (C797S L858R))	pIC50 (EGFR (d746-750 C797S))	pIC50 (EGFR Exon19Del/T790M)	Compound	other results
									5.71	7.36	< 6.30	5.85	5.96	300 nM	723 nM	420 nM	< 5.30	6.20	6.96	Cc1cc2cc(n1)-c1cnn(C)c1OCCN1CCOCC(C1)n1c(nc3ccccc31)NC2=O (stereo not drawn) [Example B7, 15,21-dimethyl-23,29-dioxa-2,9,11,16,20,21,26-heptaazahexacyclo[24.4.1.1^{13,17}.0^{2,10}.0^{3,8}.0^{18,22}]dotriaconta-3,5,7,9,13(32),14,16,18(22),19-nonaen-12-one]	GI50 (PC-9; Homo sapiens, PC-9, 72 h, read-out: GI50 PC9): 667 nM; GI50 [2, 5]: 296 nM; GI50 ([2]; Mus musculus, BaF3, 72 h, BaF3 cells, EGFR DEL19 - C797S, read-out: GI50 DEL19 - C797S/BaF3): 346 nM; GI50 ([2]; Mus musculus, BaF3, 72 h, BaF3 cells, EGFR L858R - C797S, read-out: GI50 L858R - C797S/BaF3): 334 nM; GI50 ([2]; Mus musculus, BaF3, 72 h, BaF3 cells, EGFR L858R, read-out: GI50 L858R/BaF3): 1900 nM
									7.43	8.09	< 5.30	7.42	7.85	19 nM	38 nM	10 nM	6.52	7.59	7.68	Cc1cc2cc(n1)-c1cnn(C)c1OCCN1CC3CCC(CC3)(C1)n1c(nc3ccc(N4CCC5(CCN(C)CC5)C4)cc31)NC2=O [Example B38]	pIC50 (EGFR L858R): 6.25; GI50 [2, 9]: 24 nM; GI50 [2, 10]: 81 nM
